Results reported in US12083098B2, “Treatment of idiopathic pulmonary fibrosis with glycogen synthase kinase 3 form β inhibitors” (Actuate Therapeutics Inc., priority 2018, dated 2024).
“Also recorded” adds a separate entry of the source.

Legend:
[1] = system: bleomycin-induced pulmonary fibrosis; assay: Bleomycin-induced pulmonary fibrosis model in mice; assay type: in vivo, C57BL/6 mice
Method: All animal studies were approved by the Institutional Animal Care and Use Committee at the University of Texas Health Science Center at Tyler. C57BL/6 mice (10-12 weeks of age, ≈20 g (from Jackson Laboratory, Bar Harbor ME) were first anesthetized with xylazine/ketamine by intraperitoneal (TP) injection. Lung injury was then initiated in accordance with (Sisson T H et al., Am J Pathol 2015, 185:[…]) with some modifications. Bleomycin sulfate (Teva, 0.8 units/kg) was administered intratracheally via an intratracheal cannula. Animals were monitored daily for sign of respiratory distress, significant weight loss or moribund condition. The control group received normal saline under the same conditions.
Treatments were begun 14 d after the initiation of injury. For GSK-3β inhibitor studies, treatment with 9-ING-41 (gift from Actuate Therapeutics, Ft. Worth, TX), at 30 mg/kg, or vehicle control dimethylsulfoxide/DMSO in a volume of 40 μl, was administered daily by IP injection for up to 14 d.
At the completion of the 28 d time course mice were evaluated by flexivent (Tucker T et al., Am J Respir Cell Mol Biol 2019 (doi: 10.1165/rcmb.2018-0121OC. Epub ahead of print); Kamata H et al., Sci Rep 2017, 7:4556; Boren J et al., supra; Tucker T A et al., 2014, supra; Tucker T A et al., Clin Transl Med 5: 17, 2016) for changes in pulmonary function including elastance and compliance. Briefly, mice were anesthetized with a ketamine/xylazine mixture. Anesthetized mice were intubated by inserting a sterile, 20-gauge intravenous cannula through the vocal cords into the trachea and were maintained under anesthesia using isoflurane during pulmonary function testing. Measurements were performed using the flexiVent system (SCIREQ, Tempe AZ). The “snapshot perturbation method” was used to determine lung compliance, according to manufacturer's specifications. At 28 d, mice were euthanized and lungs harvested en bloc. Lung morphometry was determined by trichrome staining of 5 μm lung tissue sections as described in the above cited references. All tissue sections were first de-paraffinized and subjected to antigen retrieval using a citrate buffer at 95° C. for 20 minutes. Tissue analyses, collagen deposition and localization were initially assessed by Trichrome staining. Immunofluorescence was used to visualize α-SMA (MAB1420, R&D), Confocal microscopy was then used to visualize immunofluorescence and co-localization of the markers. Images were acquired from a field of view at 0.4-μm z-axis increments with the LSM 510 Meta confocal system (Carl Zeiss) at 40× as described.
(§1) All statistical analyses of animal studies was performed using the Mann Whitney U test. (Student's t-test was used for in vitro studies). A p-value of less than 0.05 was considered significant.

[2] = system: TGF-β adenovirus induced pulmonary fibrosis; assay: TGF-β adenovirus-induced pulmonary fibrosis model in mice; assay type: in vivo
Method: In a second model, pulmonary fibrosis was initiated by intratracheal instillation of constitutively active TGF-β adenoviral vectors (Ad-TGF-β) bearing C223S/C225S mutations, as reported by Mackinnon A C et al., Am J Respir Crit Care Med 2012, 185:537-46) with some modifications. Briefly, 3×10^8 pfu of Ad-TGF-β or eGFP adenovirus control vector (Ad-eGFP) were administered intratracheally in a volume of 40 μl. Mice were then monitored daily until the completion of the 14 d time-course. For GSK-3β inhibition studies, mice received daily 9-ING-41 treatment 7 d after administration of the adenoviral vectors. At the conclusion of the time-course pulmonary function testing and CT scans were performed as described (Tucker T et al., 2019, supra; Kamata H et al., 2017, supra; Boren J et al., 2017, supra; Tucker T A et al., 2016, supra.
as §1
Pulmonary fibrosis was initiated by intratracheal instillation of constitutively active TGF-β adenoviral vectors (Ad-TGF-0) bearing C223S/C225S mutations, as previously reported (Mackinnon A C et al., Am J Respir Crit Care Med 2012, 185:537-46) with some modifications. Briefly, 3×10^8 plaque forming units (pfu) of Ad-TGF-β or eGFP adenovirus control vector (Ad-eGFP) were administered intratracheally in a volume of 40 μl. Mice were then monitored daily until the completion of the 14 d time-course. For GSK-3β inhibition studies, mice received daily 9-ING-41 treatment 7 d after administration of the adenoviral vectors. At the conclusion of the time-course pulmonary function testing and CT scans were performed as described (Tucker T et al., 2019, supra; Kamata H et al., 2017, supra; Boren J et al., 2017, supra; Tucker T A et al., 2016, supra.

Cn1cc(C2=C(c3coc4ccc(F)cc34)C(=O)NC2=O)c2cc3c(cc21)OCO3 [9-ING-41]
lung volume (gated CT scan) ([1]; bleomycin 0.8 U/kg intratracheal, 30 mg/kg daily ip from day 14, read at 28 d, vs DMSO vehicle, p=0.026, 30 mg/kg): significantly improved; also recorded: increased lung volume
collagen 1 deposition in lung sections (immunostaining, confocal microscopy 40×) ([1]; bleomycin injured lungs, compared to vehicle (DMSO) treated controls): reduced
areas of injury / fibrotic foci in lung sections (Trichrome) ([1]; bleomycin model, 30 mg/kg daily ip, 5 μm sections, n=6, compared to vehicle treated animals): fewer in number and smaller
collagen deposition within the fibrotic lesions ([1]; bleomycin model, 30 mg/kg daily ip, compared to DMSO-treated controls): generally reduced
lung compliance (Scireq flexivent) ([1]; bleomycin sulfate 0.8 U/kg intratracheal, 9-ING-41 30 mg/kg daily ip from day 14 for up to 14 d, read at 28 d, vs DMSO vehicle, p=0.04, 30 mg/kg): significantly improved; also recorded: improved lung function
α-SMA expression in lung sections (immunostaining, confocal microscopy 40×) ([1]; marker of myofibroblast differentiation, n=3 mice/treatment, compared to vehicle (DMSO)): reduced
lung compliance ([2]; Ad-TGF-β 3×10^8 pfu intratracheal, 9-ING-41 30 mg/kg daily ip from day 7 for 7 d, read at 14 d, n=6, p<0.05 vs controls, 30 mg/kg): significantly improved; also recorded: improved lung function
lung volume ([2]; TGF-β adenovirus model, at completion of 14 d time course): increased lung volume
areas of injury and collagen deposition in lung sections (Trichrome) ([2]; TGF-β adenovirus model, compared to DMSO-treated controls, n=6): reduced areas of injury
